As a reminder, the melting point is the temperature, or range, at which the solid turns liquid.

Here are results for 17 compounds from patent publication US11446304B2, “CDC-7-inhibitor compounds and use thereof for the treatment of neurological conditions” (CONSEJO SUPERIOR DE INVESTIGACIONES CIENTIFICAS (CSIC), priority 2017, dated 2022).

Molecules are shown by their SMILES.

The target in series [1] is human recombinant CDC7/DBF4 (Homo sapiens, UniProt O00311). Nature of the series: CDC7 inhibition measurement (LanthaScreen Eu kinase binding, FRET). Conditions: CDC7/DBF4 0.5 nM, 60 min at room temperature; read-out: CDC7 Lantha ™ CI50. From the text:
The LanthaScreen Eu kinases inhibition assay uses an Alexa marker Fluor™ that binds to a kinase and is detected by the addition of an Eu-marked antibody. The binding of the marker and the antibody to the kinase results in a high degree of FRET, while the displacement of the marker by an inhibitor results in a loss of FRET. Unlike many other kinase activity tests, this is a simple mix and read test, with no developmental stages. This test method has been developed by Life Technologies and identifies competitive ATP kinase inhibitors, making them suitable for the detection of any compound that binds to the ATP site.
The compounds are evaluated at 1% DMSO (final) in the well. A mixture of human recombinant CDC7/DBF4 (0.5 nM), Eu-antiGST antibody (2 nM) and AlexaFluor marker (1 nM) has been used in a buffer of 50 mM HEPES pH 7.5, 0.01% BRIJ-35, 10 mM MgCl2, 1 mM EGTA in white plates of […], low volume, coded (Greiner cat. #784207), 160 nL (100×100% DMSO compound), 3.84 μL (buffer with CDC7/DBF4), 8.0 μL (antibody), 4.0 μL (marker) are added. Agitate 30 s and incubate at room temperature for 60 min. Then measure the fluorescence in the plate reader and analyze the data (Table 1).
Background: Time-resolved FRET reads energy transfer from a long-lived donor to a nearby acceptor.

A short description of series [2]: PAMPA blood-brain barrier permeation (porcine brain lipid). The format is in vitro ADME. Conditions: for Papp at 2.5 h: PAMPA-BHE, PBS pH 7.4/EtOH 70:30, 2 h 30 min at 25° C., mean ± SD, read-out: Pe; for PAMPA prediction of central nervous system (CNS) penetration: from Pe in PAMPA-BHE. An excerpt: An essential requirement for drugs for the treatment of neurodegenerative diseases is the ability to cross the blood-brain barrier (BBB), as otherwise they could not act on the target of interest. Therefore, for compounds that are not permeable or located in the area of uncertainty, it may be necessary to properly convey a pharmaceutical formulation through methods known to an expert in the field, such as encapsulation. This capability can be predicted in vitro using a method known by the acronym PAMPA (Parallel Artificial Membrane Permeability Assay) described by Di et al (Di, L.; Kerns, E. H.; Fan, K.; McConnell, O. J.; Carter, G. T. Eur. J. Med. Chem. 2003, 38 (3), 223-232) and which has subsequently been fine-tuned in our research group. This method allows predicting the effective permeability through artificial membranes by means of a passive diffusion process.
First of all, it is necessary to validate the method, for which 10 commercial compounds are used whose penetration capacity in the central nervous system (CNS) is known and which are to be specified below, obtaining in this case a good linear correlation between the experimental permeability values (Pe) and those described (FIG. 1). This correlation line obtained following the pattern described in the bibliography allows establishing the limits to predict whether or not a compound can cross the blood-brain barrier. Thus, a compound is considered BBB permeable (SNC+) if it has a permeability>4.48×10^−6 cm-s^−1.
For the procedure, between 3-5 mg of caffeine, desipramine, enoxacin, hydrocortisone, ofloxacin, piroxicam and testosterone, 12 mg of promazine and 25 mg of atenolol and verapamil were taken and dissolved in EtOH (1000 μL). 100 μL of these solutions were taken and EtOH (1400 μL) and phosphate buffer (PBS) pH=7.4 (3500 μL) were added in order to achieve a final EtOH concentration of 30% v/v in solution. Finally, the dissolutions were filtered.
On the other hand, a PBS/EtOH solution (70:30) was added to each well of the acceptance plate (180 μL). The donor plate was impregnated with a porcine brain lipid solution (4 μL) dissolved in dodecane (20 mg mL^−1). After 5 min, dissolution of each compound was added to this plate (180 μL).
Of the compounds 1 to 10 evaluated, 1-2 mg were taken and dissolved in EtOH (1500 μL) and phosphate buffer (PBS) pH=7.4 (3500 μL), filtered and added to the donor plate. With these solutions, the wavelengths at which the compounds absorb are determined and the initial absorbance levels at these wavelengths are measured using a UV absorbance reader. Each sample was analyzed from two to five wavelengths, in three wells and in two independent experiments.
The donor plate was then deposited on the acceptor forming a kind of “sandwich” and incubated for 2 hours and 30 minutes at 25° C. In this way, the compounds will pass from the donor plate to the acceptor plate through the porcine brain lipid by passive diffusion. After that time, the donor plate is carefully removed and the concentration and final absorbance of both commercial and synthesized compounds is determined. The results obtained are expressed as the mean of the measurements [standard deviation (SD)] of the different experiments carried out and are shown in table 2.

For a further series, the target named is T1, human recombinant CDC7 (Homo sapiens, UniProt O00311).
T1 construct: purchased Promega V5089
T1 sequence (O00311 whole entry): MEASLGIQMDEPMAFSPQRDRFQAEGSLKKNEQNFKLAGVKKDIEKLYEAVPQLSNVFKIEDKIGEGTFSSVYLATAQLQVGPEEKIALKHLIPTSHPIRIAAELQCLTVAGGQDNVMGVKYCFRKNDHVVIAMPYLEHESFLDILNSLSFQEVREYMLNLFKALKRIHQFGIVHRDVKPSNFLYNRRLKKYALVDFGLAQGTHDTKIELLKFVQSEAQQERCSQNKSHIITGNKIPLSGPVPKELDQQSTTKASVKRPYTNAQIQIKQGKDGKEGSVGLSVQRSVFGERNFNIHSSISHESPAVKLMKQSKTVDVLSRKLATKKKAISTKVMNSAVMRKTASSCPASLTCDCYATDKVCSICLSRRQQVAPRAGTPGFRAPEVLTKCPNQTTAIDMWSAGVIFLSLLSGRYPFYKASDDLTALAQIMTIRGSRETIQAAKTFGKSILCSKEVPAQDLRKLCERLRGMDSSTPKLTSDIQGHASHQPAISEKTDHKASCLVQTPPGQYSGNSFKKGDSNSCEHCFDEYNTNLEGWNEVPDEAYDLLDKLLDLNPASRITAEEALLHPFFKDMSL
T1 sequence (Q9UBU7 whole entry partner): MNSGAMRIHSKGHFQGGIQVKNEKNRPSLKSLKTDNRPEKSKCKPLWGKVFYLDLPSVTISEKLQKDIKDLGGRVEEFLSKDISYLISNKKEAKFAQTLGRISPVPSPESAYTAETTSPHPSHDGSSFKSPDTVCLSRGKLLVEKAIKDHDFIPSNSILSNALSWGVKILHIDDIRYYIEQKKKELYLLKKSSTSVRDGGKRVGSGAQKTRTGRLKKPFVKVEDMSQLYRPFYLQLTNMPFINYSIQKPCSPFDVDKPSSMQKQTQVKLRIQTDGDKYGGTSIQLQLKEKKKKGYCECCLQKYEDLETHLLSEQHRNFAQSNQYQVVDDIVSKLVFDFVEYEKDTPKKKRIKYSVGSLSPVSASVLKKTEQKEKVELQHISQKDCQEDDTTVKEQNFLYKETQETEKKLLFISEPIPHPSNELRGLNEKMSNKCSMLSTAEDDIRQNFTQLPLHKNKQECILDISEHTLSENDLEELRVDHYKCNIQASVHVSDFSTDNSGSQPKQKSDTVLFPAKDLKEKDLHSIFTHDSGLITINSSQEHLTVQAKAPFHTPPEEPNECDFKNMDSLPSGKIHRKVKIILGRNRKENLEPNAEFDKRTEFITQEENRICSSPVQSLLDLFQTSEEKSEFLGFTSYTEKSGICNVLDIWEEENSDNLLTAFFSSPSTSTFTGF
Nature of the series: CDC7 inhibition measurement (ADP-Glo technology). In kind it is biochemical. The settings on record: ATP 10 μM, 60 min at room temperature; read-out: CDC7 ADP-Glo ™ CI50. Here is the method:
The method used is a non-radioactive enzyme inhibition assay using human recombinant CDC7. It is based on luminometric quantification of inhibition using the ADP-Glo™ Kinase Kit. In this test the luminescent signal correlates positively with the amount of adenosine diphosphate (ADP) and the activity of the kinase. […]
CDC7 enzyme inhibition studies were conducted using the promega kit: ADP-Glo™ Kinase Assay+CDC7/DBF4 Kinase Enzyme System (Catalogue No. V5089). ATP and other reagents were purchased in Sigma-Aldrich (St. Louis, Mo.). The trials were performed in a buffer solution using 96-well plates. The compound to be tested (5 μL, 40 μM dissolved in DMSO 4%) was added to each well followed by the enzyme (5 μL, 25 ng/well), ATP (5 μL, final concentration in well 10 μM) and PDKtidE (5 μL, 4 μg/well). It was then incubated for 60 minutes at room temperature and the reagent ADP-Glo™ (20 μL) was added and incubated again for 40 min at room temperature. After incubation, the kinase detection agent (40 μL) was added and incubated for 30 min at room temperature. Finally, the luminescence (integration time of 0.5-1 sec) was measured using a POLARstar Optima multimode reader polarimeter. Inhibition activities were calculated as a function of maximum activity, measured in the absence of inhibitor.
(In general: In ADP-Glo the light output rises with the ADP produced.)

Chain of human recombinant CDC7/DBF4 (O00311 whole entry): as the sequence (O00311 whole entry) above
Chain of human recombinant CDC7/DBF4 (Q9UBU7 whole entry partner): as the sequence (Q9UBU7 whole entry partner) above

For the compound `CCOC(=O)c1ccccc1CSc1ncnc2[nH]cnc12` [Compound 16, Ethyl 2-(((9H-Purine-6-yl)thio)methyl)benzoate], the melting point lay within 145 to 147 °C. In series [1], the IC50 was determined as 2790 nM. In addition, in series [2], the Papp at 2.5 h stood at 9.7 ± 1.4 ×10⁻⁶ cm/s and the “PAMPA prediction of central nervous system (CNS) penetration” value (shortened to “PAMPA prediction”) is listed as “SNC+ (a compound is considered BBB permeable (SNC+) if it has a permeability>4.48×10^−6 cm-s^−1)”.
`Clc1ccc(CSc2ncnc3[nH]cnc23)cc1` [Compound 5, 6-((4-chlorobenzyl)thio)-9H-purine] showed a melting point of 198 to 200 °C. The IC50 on human recombinant CDC7 came out at 8.46 ± 1.05 µM. The IC50 in series [1] came to 184 nM. Further, in series [2], the Papp at 2.5 h is 12.2 ± 1.2 ×10⁻⁶ cm/s and the “PAMPA prediction” value is “SNC+ (a compound is considered BBB permeable (SNC+) if it has a permeability>4.48×10^−6 cm-s^−1)”.
`N#Cc1cccc(CSc2ncnc3[nH]cnc23)c1` [Compound 3] displayed a melting point of 189 to 191 °C. At human recombinant CDC7, the IC50 amounted to 8.38 ± 0.27 µM. In addition, in series [1], the IC50 turned out to be 335 nM. Moreover, in series [2], the Papp at 2.5 h stood at 2.3 ± 0.2 ×10⁻⁶ cm/s and the “PAMPA prediction” value is reported as “SNC+/−”.
`FC(F)(F)c1ccc(CSc2ncnc3[nH]cnc23)cc1` [Compound 22, 6-(4-(trifluoromethyl)benzylthio)-9H-purine]: in series [1], the IC50 is 367 nM. Also, in series [2], the Papp at 2.5 h is 13.5 ± 1.6 ×10⁻⁶ cm/s and the “PAMPA prediction” value is “SNC+ (a compound is considered BBB permeable (SNC+) if it has a permeability>4.48×10^−6 cm-s^−1)”.
The compound `Clc1ccccc1CSc1ncnc2[nH]cnc12` [Compound 14, 6-((2-Chlorobenzyl)thio)-9H-purine] displayed a melting point of 200 to 202 °C. Besides, in series [1], the IC50 was 92 nM. Also, in series [2], the Papp at 2.5 h came out at 18.1 ± 1.2 ×10⁻⁶ cm/s and the “PAMPA prediction” value is recorded as “SNC+ (a compound is considered BBB permeable (SNC+) if it has a permeability>4.48×10^−6 cm-s^−1)”.
In the case of `CC(=O)Nc1ccc(CSc2ncnc3[nH]cnc23)cc1` [Compound 18, 6-((4-Acetamidobenzyl)thio)-9H-purine], the melting point lay in the range of 223 to 225 °C.
In the case of `c1ccc(COc2[nH]cnc3ncnc2-3)cc1` [Compound 20, 6-((benzyl)oxy)-9H-purine], the IC50 in series [1] worked out at 167 nM. Moreover, in series [2], the Papp at 2.5 h is 2.9 ± 0.9 ×10⁻⁶ cm/s and the “PAMPA prediction” value is “SNC+/−”.
`FC(F)(F)c1cccc(CSc2ncnc3[nH]cnc23)c1` [Compound 7, 6-((3-(trifluoromethyl)benzyl)thio)-9H-purine] gave a melting point of 180 to 182 °C. Besides, the IC50 at human recombinant CDC7 was found to be 6.9 ± 0.83 µM. Besides, in series [2], the Papp at 2.5 h came out at 16.3 ± 0.6 ×10⁻⁶ cm/s and the “PAMPA prediction” value is recorded as “SNC+ (a compound is considered BBB permeable (SNC+) if it has a permeability>4.48×10^−6 cm-s^−1)”.
`CSc1ccc(CSc2ncnc3[nH]cnc23)cc1` [Compound 23, 6-((4-(Methylthio)benzyl)thio)-9H-purine] had a melting point of 203 to 205 °C. The IC50 in series [1] stood at 146 nM. In addition, in series [2], the Papp at 2.5 h came to 17.8 ± 0.7 ×10⁻⁶ cm/s and the “PAMPA prediction” value is “SNC+ (a compound is considered BBB permeable (SNC+) if it has a permeability>4.48×10^−6 cm-s^−1)”.
With `Brc1cccc(CSc2ncnc3[nH]cnc23)c1` [Compound 11, 6-((3-bromobenzyl)thio)-9H-purine], the IC50 at human recombinant CDC7 was found to be 5.29 ± 0.71 µM; in series [1], 138 nM.
With `Brc1ccc(CSc2[nH]cnc3ncnc2-3)cc1` [Compound 12, 6-((4-bromobenzyl)thio)-9H-purine], the IC50 on human recombinant CDC7 worked out at 9.14 ± 0.79 µM. In series [2], the Papp at 2.5 h stood at 11.5 ± 0.7 ×10⁻⁶ cm/s and the “PAMPA prediction” value is listed as “SNC+ (a compound is considered BBB permeable (SNC+) if it has a permeability>4.48×10^−6 cm-s^−1)”.
In turn, `N#Cc1ccc(CSc2ncnc3[nH]cnc23)cc1` [Compound 19, 6-((4-Cyanobenzyl)thio)-9H-purine] had a melting point of 228 to 230 °C. Further, in series [2], the Papp at 2.5 h was 2 ± 0.7 ×10⁻⁶ cm/s and the “PAMPA prediction” value is “SNC+/−”.
Take `FC(F)(F)c1ccccc1CSc1ncnc2[nH]cnc12` [Compound 4, 6-((2-(trifluoromethyl)benzyl)thio)-9H-purine]: the IC50 on human recombinant CDC7 came to 9.73 ± 1.03 µM. The IC50 in series [1] stood at 245 nM. In addition, in series [2], the Papp at 2.5 h was determined as 17.5 ± 0.9 ×10⁻⁶ cm/s and the “PAMPA prediction” value is “SNC+ (a compound is considered BBB permeable (SNC+) if it has a permeability>4.48×10^−6 cm-s^−1)”.
For the compound `COc1cccc(CSc2ncnc3[nH]cnc23)c1` [Compound 15, 6-((3-methoxybenzyl)thio)-9H-purine], in series [2], the Papp at 2.5 h came to 5.3 ± 0.8 ×10⁻⁶ cm/s and the “PAMPA prediction” value is “SNC+ (a compound is considered BBB permeable (SNC+) if it has a permeability>4.48×10^−6 cm-s^−1)”.
In the case of `O=[N+]([O-])c1ccc(CSc2ncnc3[nH]cnc23)cc1` [Compound 17, 6-((4-nitrobenzyl)thio)-9H-purine], in series [1], the IC50 was determined as 127 nM. For the same compound, in series [2], the Papp at 2.5 h was found to be 5.5 ± 1.3 ×10⁻⁶ cm/s and the “PAMPA prediction” value is on record as “SNC+ (a compound is considered BBB permeable (SNC+) if it has a permeability>4.48×10^−6 cm-s^−1)”.
As for `Brc1ccc(COc2ncnc3[nH]cnc23)cc1` [Compound 21, 6-((4-Bromobenzyl)oxy)-9H-purine], in series [2], the Papp at 2.5 h came to 14 ± 1.4 ×10⁻⁶ cm/s and the “PAMPA prediction” value was “SNC+ (a compound is considered BBB permeable (SNC+) if it has a permeability>4.48×10^−6 cm-s^−1)”.
`O=[N+]([O-])c1cccc(CSc2ncnc3[nH]cnc23)c1` [Compound 10, 6-((3-nitrobenzyl)thio)-9H-purine] registered a melting point of 193 to 195 °C. On human recombinant CDC7, the IC50 is 6.54 ± 0.32 µM. Moreover, in series [2], the Papp at 2.5 h came to 3.9 ± 0.4 ×10⁻⁶ cm/s and the “PAMPA prediction” value is “SNC+/−”.
